Results as given in patent publication US20250361253A1, “STING AGONIST COMPOUNDS” (Sutro Biopharma, Inc., priority 2022, published 2025).

Columns and labels:
mSTING = biological target: T1, mSTING (Mus musculus, UniProt Q3TBT3); experiment: ISG reporter induction in 293-Dual mSTING reporter cells (QUANTI-Blue); format: cell-based; conditions: 293-Dual mSTING cells, overnight incubation
T1 construct: host or cells: 293-Dual (HEK293-derived) reporter cells
T1 sequence (Q3TBT3 1-378): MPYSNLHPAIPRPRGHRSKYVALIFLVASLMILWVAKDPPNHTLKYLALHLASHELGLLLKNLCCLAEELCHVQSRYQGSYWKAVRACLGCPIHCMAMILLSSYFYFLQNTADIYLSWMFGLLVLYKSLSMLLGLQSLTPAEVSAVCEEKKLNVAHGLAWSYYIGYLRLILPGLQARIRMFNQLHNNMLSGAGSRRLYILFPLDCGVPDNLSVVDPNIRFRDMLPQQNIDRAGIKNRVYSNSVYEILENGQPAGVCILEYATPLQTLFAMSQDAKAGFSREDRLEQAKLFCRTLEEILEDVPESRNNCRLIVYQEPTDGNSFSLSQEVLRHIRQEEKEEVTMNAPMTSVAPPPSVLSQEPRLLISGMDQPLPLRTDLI
Experimental: (§1) Certain STING compounds of the disclosure were evaluated in an in vitro cell based assay.
(§2) 293-Dual hSTING-R232 and mSTING cells (Invivogen) were seeded at 25,000 cells/well (50 ul) and co-cultured with STING agonists (2× concentration, 50 ul) in clear, half-area, 96-well polystyrene plates. Cells and test samples were prepared in DMEM supplemented with 10% FBS, Glutamax, and PenStrep. After overnight incubation at 37 C in a CO2 incubator, 20 ul of supernatant was added to QUANTI-Blue detection reagent (Invivogen). After one hour incubation at 37 C, plates were read at 640/650 nm on EnVision plate reader (PerkinElmer). OD values were plotted by log(agonist) vs. response, variable slope, four parameter curve fit (Log transform) using GraphPad Prism software to determine EC50 values.

hSTING WT [1] = biological target: T2, hSTING WT (Homo sapiens, UniProt Q86WV6); experiment: Thermal shift assay (DSF); format: binding; design: unit not given here; conditions: compound at 3.12 uM
From the text: Thermal shift assay experimental methods were followed based on the published methods described in Ramanjulu et al. Nature, 2018, 564, 439.

hSTING WT [2] = biological target: T2, hSTING WT; experiment: Surface plasmon resonance assay; format: binding; conditions: read-out: hSTING WT SPR (Kd)
Experimental: Surface plasmon resonance assay experimental methods were followed based on the published methods described in Pan et al., Science, 2020 369, eaba6098. (“A” means EC50≤20 nM).

hSTING-R232 = biological target: T3, hSTING-R232 (Homo sapiens, UniProt Q86WV6, H232R); experiment: ISG reporter induction in 293-Dual hSTING-R232 reporter cells (QUANTI-Blue); format: cell-based; conditions: 293-Dual hSTING-R232 cells, overnight incubation
T3 construct: host or cells: 293-Dual (HEK293-derived) reporter cells
Experimental: as §1, §2

T2 sequence (Q86WV6 155-341 H232R limits assumed): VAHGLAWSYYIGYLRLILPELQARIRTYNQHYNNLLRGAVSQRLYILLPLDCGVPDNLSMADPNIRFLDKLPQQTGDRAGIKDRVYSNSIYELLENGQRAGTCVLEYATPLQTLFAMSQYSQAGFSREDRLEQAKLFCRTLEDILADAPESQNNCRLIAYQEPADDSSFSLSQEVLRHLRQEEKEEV
T3 sequence (Q86WV6 whole entry H232R): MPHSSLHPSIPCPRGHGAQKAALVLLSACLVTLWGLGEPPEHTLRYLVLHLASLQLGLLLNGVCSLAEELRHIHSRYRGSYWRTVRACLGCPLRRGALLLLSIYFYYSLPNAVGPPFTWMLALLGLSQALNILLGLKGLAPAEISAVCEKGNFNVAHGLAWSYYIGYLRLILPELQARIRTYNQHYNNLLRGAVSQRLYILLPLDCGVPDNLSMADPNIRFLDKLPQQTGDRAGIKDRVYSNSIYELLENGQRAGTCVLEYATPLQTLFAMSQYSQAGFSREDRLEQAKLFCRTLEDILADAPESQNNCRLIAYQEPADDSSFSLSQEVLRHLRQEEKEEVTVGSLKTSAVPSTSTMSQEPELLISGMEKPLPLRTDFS

EC50 (mSTING): ≤ 50 nM | hSTING WT DSF (delta TmD @ 3.12 uM) (hSTING WT [1]): 20 | Kd (hSTING WT [2]): ≤ 20 nM | EC50 (hSTING-R232): ≤ 50 nM
Structure (SMILES): COc1cc2sc(C(=O)CCC(=O)O)cc2c(F)c1OCCCOc1c(OC)cc2sc(C(=O)CCP(=O)(O)O)cc2c1F [Compound 7, 4-(4-Fluoro-5-(3-((4-fluoro-6-methoxy-2-(3-phosphonopropanoyl)benzo[b]thiophen-5-yl)oxy)propoxy)-6-methoxybenzo[b]thiophen-2-yl)-4-oxobutanoic acid]
